In ChEMBL document CHEMBL1909046, “DrugMatrix in vitro pharmacology data”:

Tests used:
[1] = target: T1, Cysteinyl leukotriene receptor 1 (Homo sapiens, UniProt Q9Y271); format: cell membranes, Membrane; conditions: cho-k1; also: in other assays of this panel Not Active means under 50% inhibition at 10 µM
T1 sequence (Q9Y271 whole entry): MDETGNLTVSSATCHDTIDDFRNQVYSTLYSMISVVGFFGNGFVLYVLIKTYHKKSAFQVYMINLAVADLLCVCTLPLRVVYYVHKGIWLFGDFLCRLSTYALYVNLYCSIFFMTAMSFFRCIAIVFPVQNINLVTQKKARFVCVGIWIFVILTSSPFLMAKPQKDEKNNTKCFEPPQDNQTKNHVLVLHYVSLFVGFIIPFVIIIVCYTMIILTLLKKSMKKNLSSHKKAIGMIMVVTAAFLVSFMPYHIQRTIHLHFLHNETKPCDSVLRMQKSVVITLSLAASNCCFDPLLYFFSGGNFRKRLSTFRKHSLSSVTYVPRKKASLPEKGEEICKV

[2] = DRUGMATRIX: Calcium Channel Type L, Phenylalkylamine radioligand binding (ligand: [3H] (-)-Desmethoxyverapamil (D-888)); format: cell membranes, Rattus norvegicus, Wistar, Brain, Membrane; conditions: Not Active = under 50% inhibition at 10 µM
Endothelin-1 receptor = target: T2, Endothelin-1 receptor (Homo sapiens, UniProt P25101); format: cell membranes, CHO-K1, Membrane; conditions: cho-k1; also: in other assays of this panel Not Active means under 50% inhibition at 10 µM
T2 sequence (P25101 whole entry): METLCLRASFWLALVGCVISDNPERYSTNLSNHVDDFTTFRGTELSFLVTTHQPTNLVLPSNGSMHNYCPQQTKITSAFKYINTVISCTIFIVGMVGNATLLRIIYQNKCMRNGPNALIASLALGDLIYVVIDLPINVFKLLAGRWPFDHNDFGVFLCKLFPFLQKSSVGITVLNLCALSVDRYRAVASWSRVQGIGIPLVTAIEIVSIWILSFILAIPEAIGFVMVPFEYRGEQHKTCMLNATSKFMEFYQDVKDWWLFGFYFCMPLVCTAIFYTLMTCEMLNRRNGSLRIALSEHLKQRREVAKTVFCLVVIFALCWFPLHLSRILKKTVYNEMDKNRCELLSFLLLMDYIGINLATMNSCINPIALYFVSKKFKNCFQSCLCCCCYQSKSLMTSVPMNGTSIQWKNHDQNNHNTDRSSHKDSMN

[3] = target: T3, 3-hydroxy-3-methylglutaryl-coenzyme A reductase (Homo sapiens, UniProt P04035); set-up: species or system Escherichia coli;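 also: enzyme inhibition assay of HMG-CoA reductase using radiolabeled [14C]HMG-CoA as substrate; in other assays of this panel Not Active means under 50% inhibition at 10 µM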
T3 sequence (P04035 whole entry): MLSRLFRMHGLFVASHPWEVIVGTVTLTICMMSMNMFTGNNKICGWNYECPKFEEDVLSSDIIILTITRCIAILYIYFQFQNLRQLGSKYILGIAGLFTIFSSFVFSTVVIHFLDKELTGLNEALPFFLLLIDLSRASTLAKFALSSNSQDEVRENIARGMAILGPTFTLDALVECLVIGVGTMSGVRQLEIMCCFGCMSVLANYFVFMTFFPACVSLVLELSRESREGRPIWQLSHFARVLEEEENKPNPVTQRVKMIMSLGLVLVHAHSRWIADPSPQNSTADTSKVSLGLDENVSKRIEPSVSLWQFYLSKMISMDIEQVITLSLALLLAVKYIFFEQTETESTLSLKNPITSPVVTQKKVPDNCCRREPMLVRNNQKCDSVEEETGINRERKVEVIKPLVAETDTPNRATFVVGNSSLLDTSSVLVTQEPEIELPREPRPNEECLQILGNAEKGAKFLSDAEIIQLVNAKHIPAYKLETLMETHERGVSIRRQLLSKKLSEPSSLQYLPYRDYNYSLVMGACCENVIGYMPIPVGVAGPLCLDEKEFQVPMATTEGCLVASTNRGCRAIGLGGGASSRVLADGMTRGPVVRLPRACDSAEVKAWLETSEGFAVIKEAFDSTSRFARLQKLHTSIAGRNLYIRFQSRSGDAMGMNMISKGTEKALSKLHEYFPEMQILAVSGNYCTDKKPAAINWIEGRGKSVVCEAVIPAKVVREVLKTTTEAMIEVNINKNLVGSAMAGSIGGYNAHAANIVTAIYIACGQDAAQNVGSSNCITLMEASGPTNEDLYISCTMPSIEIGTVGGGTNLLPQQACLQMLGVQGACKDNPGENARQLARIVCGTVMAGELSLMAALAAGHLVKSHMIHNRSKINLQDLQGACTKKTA

Caspase-1 = target: T4, Caspase-1 (Homo sapiens, UniProt P29466); set-up: species or system Escherichia coli;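 also: Caspase-1 enzyme inhibition assay with a peptide substrate; in other assays of this panel Not Active means under 50% inhibition at 10 µM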
T4 sequence (P29466 whole entry): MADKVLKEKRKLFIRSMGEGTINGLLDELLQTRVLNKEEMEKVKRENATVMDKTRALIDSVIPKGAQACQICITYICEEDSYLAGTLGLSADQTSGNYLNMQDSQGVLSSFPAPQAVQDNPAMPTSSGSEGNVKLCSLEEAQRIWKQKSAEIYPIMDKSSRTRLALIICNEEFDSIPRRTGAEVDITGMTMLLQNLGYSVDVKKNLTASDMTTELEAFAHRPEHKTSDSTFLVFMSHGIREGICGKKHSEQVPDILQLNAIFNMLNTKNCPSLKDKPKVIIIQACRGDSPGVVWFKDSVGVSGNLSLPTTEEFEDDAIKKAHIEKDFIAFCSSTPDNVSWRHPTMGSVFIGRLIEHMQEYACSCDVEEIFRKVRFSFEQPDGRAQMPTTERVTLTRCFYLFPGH

[4] = target: Sigma non-opioid intracellular receptor 1 (Homo sapiens, UniProt Q99720); assay: DRUGMATRIX: Sigma1 radioligand binding (ligand: [3H] Haloperidol); format: cell membranes, Jurkat, Membrane; conditions: jurkat; Not Active = under 50% inhibition at 10 µM
[5] = DRUGMATRIX: Sodium/nucleoside co-transporter radioligand binding (ligand: nitrobenzylthioinosine); format: cell membranes, Cavia porcellus, Dunkin-Hartley, Cerebral cortex, Membrane; conditions: Not Active = under 50% inhibition at 10 µM

Chain of Sigma non-opioid intracellular receptor 1 (Q99720 whole entry): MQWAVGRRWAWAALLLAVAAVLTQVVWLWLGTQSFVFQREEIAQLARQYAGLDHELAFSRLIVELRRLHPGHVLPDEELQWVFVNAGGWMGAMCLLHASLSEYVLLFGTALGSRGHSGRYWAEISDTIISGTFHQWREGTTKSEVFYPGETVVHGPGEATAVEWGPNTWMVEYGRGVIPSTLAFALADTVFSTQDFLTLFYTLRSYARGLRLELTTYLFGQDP

O=C(/C=C/c1ccc(O)c(O)c1)OCCc1ccccc1 [CAFFEIC ACID PHENETHYL ESTER]
Not Active: IC50 [1] | IC50 [2] | Ki [2] | IC50 (Endothelin-1 receptor) | IC50 [3] | IC50 (Caspase-1) | IC50 [4] | IC50 [5] | Ki [5]

NC[C@@H]1O[C@H](O[C@H]2[C@@H](O)[C@H](O[C@@H]3[C@@H](O)[C@H](N)C[C@H](N)[C@H]3O[C@H]3O[C@H](CN)[C@@H](O)[C@H](O)[C@H]3N)O[C@@H]2CO)[C@H](N)[C@@H](O)[C@@H]1O [FRAMYCETIN]
Not Active: IC50 [1] | IC50 [2] | Ki [2] | IC50 (Endothelin-1 receptor) | IC50 [3] | IC50 (Caspase-1) | IC50 [4] | IC50 [5] | Ki [5]

CCCCCC[C@H]1C(=O)O[C@H](C)[C@H](NC(=O)c2cccc(NC=O)c2O)C(=O)O[C@@H](C)[C@@H]1OC(=O)CC(C)C [ANTIMYCIN A]
Not Active: IC50 [1] | IC50 [2] | Ki [2] | IC50 (Endothelin-1 receptor) | IC50 [3] | IC50 (Caspase-1) | IC50 [4] | IC50 [5] | Ki [5]

Oc1ccccc1O [CATECHOL]
Not Active: IC50 [1] | IC50 [2] | Ki [2] | IC50 (Endothelin-1 receptor) | IC50 [3] | IC50 (Caspase-1) | IC50 [4] | IC50 [5] | Ki [5]

Cc1c(F)c(N2CCNC(C)C2)cc2c1c(=O)c(C(=O)O)cn2C1CC1 (stereo not given) [GREPAFLOXACIN]
Not Active: IC50 [1] | IC50 [2] | Ki [2] | IC50 (Endothelin-1 receptor) | IC50 [3] | IC50 (Caspase-1) | IC50 [4] | IC50 [5] | Ki [5]

[N-]=[N+]=CC(=O)OC[C@H](N)C(=O)O [AZASERINE]
Not Active: IC50 [1] | IC50 [2] | Ki [2] | IC50 (Endothelin-1 receptor) | IC50 [3] | IC50 (Caspase-1) | IC50 [4] | IC50 [5] | Ki [5]

C#C[C@]1(O)CC[C@H]2[C@@H]3CCC4=Cc5oncc5C[C@]4(C)[C@H]3CC[C@@]21C [DANAZOL]
14.6 µM: IC50 ([2]; read-out: IC50)
14.2 µM: Ki ([2]; read-out: Ki)
Not Active: IC50 [1] | IC50 (Endothelin-1 receptor) | IC50 [3] | IC50 (Caspase-1) | IC50 [4] | IC50 [5] | Ki [5]

CO[C@H]1[C@@H](O)[C@H](N)[C@@H](O[C@H]2O[C@H]([C@H](C)N)CC[C@H]2N)[C@H](O)[C@@H]1N(C)C(=O)CN [ASTROMICIN]
Not Active: IC50 [1] | IC50 [2] | Ki [2] | IC50 (Endothelin-1 receptor) | IC50 [3] | IC50 (Caspase-1) | IC50 [4] | IC50 [5] | Ki [5]

COc1ccc2cc(CCC(C)=O)ccc2c1 [NABUMETONE]
Not Active: IC50 [1] | IC50 [2] | Ki [2] | IC50 (Endothelin-1 receptor) | IC50 [3] | IC50 (Caspase-1) | IC50 [4] | IC50 [5] | Ki [5]

N=C(N)N/N=C/c1c(Cl)cccc1Cl [GUANABENZ]
Not Active: IC50 [1] | IC50 [2] | Ki [2] | IC50 (Endothelin-1 receptor) | IC50 [3] | IC50 (Caspase-1) | IC50 [4] | IC50 [5] | Ki [5]
